Where two headings read alike, the source gives them in different places.
Experiments:
[1] = tested on: P388 lymphocytic leukaemia; test: In vivo antitumor screening against P388 lymphocytic leukaemia in mice; settings: Mus musculus, P388, ip, free base, intraperitoneal, NCI protocols, read-out: Optimum T/C; for response vs control in vivo at 100 mg/kg: optimum dose 100 mg/kg; for response vs control in vivo at 240 mg/kg: optimum dose 240 mg/kg; for response vs control in vivo at 200 mg/kg: optimum dose 200 mg/kg
Text: ^a All compounds administered to mice as free bases via
intraperitoneal route according to NCI protocols.

rat liver DHFR = target: T1, rat liver DHFR (Rattus norvegicus, UniProt Q920D2); test: Inhibition of rat liver DHFR (spectrophotometric assay; I50 and Ki); type: biochemical
T1 construct: from tissue; host or cells: liver of male Wistar rats; homogenate supernatant, pH 5.1 step, dialysed, partially purified
T1 sequence (Q920D2 1-187): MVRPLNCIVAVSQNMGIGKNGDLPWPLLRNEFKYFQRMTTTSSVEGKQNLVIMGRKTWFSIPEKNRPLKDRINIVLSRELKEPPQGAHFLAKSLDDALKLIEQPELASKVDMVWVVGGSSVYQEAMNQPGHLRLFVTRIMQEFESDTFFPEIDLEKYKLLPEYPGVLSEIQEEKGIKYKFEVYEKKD
Method: All solutions were prepared on the day previous to the experiment and stored in the dark at 4° C. prior to use.
The stock solutions were diluted, as necessary, immediately before use to produce the required inhibitor concentration.
B.1 Preparation of partially purified DHFR
All further manipulations were performed at 4° C.: the livers (30.7 g) were transferred to a Waring blender to which approximately 8 volumes of water was added (final volume c.a. 300 ml), whereupon the mixture was homogenised for 2 minutes for periods of 30s, allowing 30s between each run to minimise heating. Liver homogenate was centrifuged at approximately 20,000 g for 20 minutes and the pellet was discarded. The supernatant liquid was adjusted to pH 5.1 with dilute acetic acid (1.0 M initially and 0.1 M finally) and after centrifugation at 27,000 g for a further 20 minutes, the clear wine-red solution was transferred to visking tubing (2.5 cm diameter) and dialysed for 12 hours against 0.01 sodium acetate buffer solution. The dialysate was examined and if turbid, centrifuged again at 27,000 g for 20 minutes. The clear preparation was transferred to sterile plastic stoppered tubes (10 ml) and stored at -10° C. prior to use.
B.2. Preparation of reagent solutions
The buffer was kept at 4° C. to prevent bacterial growth and discarded after 3 days.
The solution was maintained at 0° C.
An aqueous solution of NADPH (2 mg.ml^-1, 2.0 mM) was prepared immediately prior to use and again maintained at 0° C.
B.3 Assay for inhibitor activity
Plastic disposable cuvettes were used throughout.
The assay was carried out as follows: NADPH (0.1 ml) and the enzyme preparation (0.1 ml) were incubated at 30° C. for 5 minutes in phosphate buffer (total volume 1.9 ml).
Reference cuvettes were set up containing NADPH, buffer, inhibitor if appropriate and dihydrofolate, but without enzyme (Table A).
Enzyme activity was estimated from the slope of the change of absorbance with time and this was arbitrarily designated as 100% for the uninhibited enzyme.
The remaining inhibitors were selected for I50 determinations and inhibitory activity was evaluated in duplicate at a minimum of four inhibitor concentrations, from which the I50 value was determined by a graphical method.
Compounds selected for inhibition constant (KI) determinations were assayed following an identical method to that described above except that inhibitory activity was measured at a minimum of ten inhibitor concentrations, again in duplicate, from which the appropriate KI values were determined by a Zone B analysis.

[2] = tested on: L1210 murine leukaemia cells; test: In vitro cytotoxicity against L1210 cells; type: cell-based; settings: Mus musculus
Method: In vitro cytotoxicity studies
Cells were seeded routinely every 72 hours at 10^4 cells.ml^-1 and counted as 10^6 cells.ml^-1 prior to each experiment and counts were performed following incubation (5% CO2 in air at full humidity) for 72 hours at 37° C., with the appropriate concentration of drug.

[3] = tested on: M5076 reticulum cell sarcoma; type: in vivo; settings: for Death: mouse, in vivo;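 on all read-outs here: mice bearing tumor implanted intramuscularly on day 1, given compound intraperitoneally once a day for 17 days in arachis oil containing 10% DMSO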
Text: Tumor: implanted intramuscularly on day 1
Drug: in 10% DMSO/arachis oil administered daily for
17 days by intraperitoneal route.
*Test/Control assessed at day 24

[4] = Table III, drug concentration necessary to reduce the 72 hour cell count to 50% of control, read-out: IC50, cytotoxicity against L1210 cells in vitro
[5] = Table II, rat liver DHFR, 95% confidence limits, read-out: Ki
[6] = Table IV, 72 hours, read-out: IC50 (L1210 cells)
[7] = Table IV, read-out: I50, rat liver dihydrofolate reductase
[8] = 0.75 mg/kg/day, Test/Control assessed at day 24, i.p.
[9] = 3.125 mg/kg/day, Test/Control assessed at day 24, i.p.
[10] = 6.25 mg/kg/day, Test/Control assessed at day 24, i.p.
[11] = 12.5 mg/kg/day, Test/Control assessed at day 24, i.p.
[12] = Table I, solvent B = 0.1 M hydrochloric acid, read-out: I50, inhibition of rat liver DHFR

## CCc1nc(N)nc(N)c1-c1ccc(NC(C)c2ccccc2)c([N+](=O)[O-])c1 (racemic) [Compound 9, 2,4-diamino-6-ethyl-5-(4-(±)-α-methylbenzylamino-3-nitrophenyl)-pyrimidine]
[1]; optimum dose 30 mg/kg
  response vs control in vivo at 30 mg/kg: 132%

## CCc1nc(N)nc(N)c1-c1ccc(NC)c([N+](=O)[O-])c1 [Compound 1, 2,4-Diamino-5-(4-methylamino-3-nitrophenyl)-6-ethylpyrimidine]
[1]
  response vs control in vivo at 100 mg/kg: 182%

## CCc1nc(N)nc(N)c1-c1ccc(N(C)C)c([N+](=O)[O-])c1 [Compound 3, 2,4-Diamino-5-(4-dimethylamino-3-nitrophenyl)-6-ethylpyrimidine]
[1]
  response vs control in vivo at 100 mg/kg: 145%

## CCCCNc1ccc(-c2c(N)nc(N)nc2CC)cc1[N+](=O)[O-] [Compound 4, 2,4-Diamino-5-(4-n-butylamino-3-nitrophenyl)-6-ethylpyrimidine]
Rat liver DHFR; Table II, rat liver DHFR, 95% confidence limits, tested as ethanesulphonate salt, read-out: Ki
  Ki: 0.19 ± 0.05 nM
[1]
  response vs control in vivo at 240 mg/kg: 206%
[2]; [4]
  IC50: 200 nM

## CCc1nc(N)nc(N)c1-c1ccc(NCc2ccccc2)c([N+](=O)[O-])c1 [Compound 5, 2,4-Diamino-5-(4-benzylamino-3-nitrophenyl)-6-ethylpyrimidine]
[1]
  response vs control in vivo at 240 mg/kg: 126%
[2]; [4]
  IC50: < 1 nM

## CCc1nc(N)nc(N)c1-c1ccc(N(C)Cc2ccccc2)c([N+](=O)[O-])c1 [Compound 6, 2,4-Diamino-6-ethyl-5-(4-N-methylbenzylamino-3-nitrophenyl)pyrimidine]
[1]; optimum dose 480 mg/kg
  response vs control in vivo at 480 mg/kg: 205%

## CCc1nc(N)nc(N)c1-c1ccc(N(CC)Cc2ccccc2)c([N+](=O)[O-])c1 [Compound 7, 2,4-Diamino-6-ethyl-5-(4-N-ethylbenzylamino-3-nitrophenyl)pyrimidine]
Rat liver DHFR; [5]
  Ki: 0.04 ± 0.03 nM
[1]
  response vs control in vivo at 200 mg/kg: 144%

## CCc1nc(N)nc(N)c1-c1ccc(NCCc2ccccc2)c([N+](=O)[O-])c1 [Compound 10, 2,4-Diamino-6-ethyl-5-(3-nitro-4-phenethylaminophenyl)-pyrimidine]
[1]
  response vs control in vivo at 200 mg/kg: 142%

## CCc1nc(N)nc(N)c1-c1ccc(N(C)Cc2ccc(C(=O)OC)cc2)c([N+](=O)[O-])c1 [Compound 15, 2,4-Diamino-6-ethyl-5-{4-[N-(4-methoxycarbonylbenzyl)-N-methylamino]-3-nitrophenyl}pyrimidine]
[2]; [6]
  IC50: 100 nM

## CCOCCOC(=O)c1ccc(CN(C)c2ccc(-c3c(N)nc(N)nc3CC)cc2[N+](=O)[O-])cc1 [Compound 16]
Rat liver DHFR; [7]
  IC50: 1.5 nM
[2]; [6]
  IC50: 40 nM

## CCc1nc(N)nc(N)c1-c1ccc(N(C)Cc2ccc(OC)cc2)c([N+](=O)[O-])c1 [Compound 17, 2,4-Diamino-6-ethyl-5-{4-[N-(4-methoxybenzyl)-N-methylamino]-3-nitrophenyl}pyrimidine]
[2]; [6]
  IC50: 70 nM

## CCc1nc(N)nc(N)c1-c1ccc(NCc2ccc(OC)cc2)c([N+](=O)[O-])c1 [Compound 18, 2,4-Diamino-6-ethyl-5-{4-[N-(4-methoxybenzyl)amino]-3-nitrophenyl}pyrimidine]
Rat liver DHFR; [7]
  IC50: 21 nM
Rat liver DHFR; Table IV, read-out: Ki, rat liver dihydrofolate reductase
  Ki: 0.088 nM
[2]; [6]
  IC50: 50 nM

## CCc1nc(N)nc(N)c1-c1ccc(N(C)Cc2ccc(C(=O)NC)cc2)c([N+](=O)[O-])c1 [Compound 19, 2,4-Diamino-6-ethyl-5-(4-{N-[4-(N-methylcarbamoyl)benzyl]-N-methylamino}-3-nitrophenyl)pyrimidine]
[3]; [8]
  T/C × 100: 67
[3]; [9]
  T/C × 100: 41
[3]; [10]
  T/C × 100: 30
[3]; [11]
  T/C × 100: 15
[3]; ip, 12.5 mg/kg
  Tumor volume: 443 mm^3
[2]; [6]
  IC50: 25 nM

## CCc1nc(N)nc(N)c1-c1ccc(N(C)Cc2ccc(C(=O)O)cc2)c([N+](=O)[O-])c1.O [Compound 20, 2,4-Diamino-6-ethyl-5-{4-[N-(4-carboxybenzyl)-N-methylamino]-3-nitrophenyl}pyrimidine monohydrate]
[3]; [8]
  T/C × 100: 100
[3]; [9]
  T/C × 100: 107
[3]; [10]
  T/C × 100: 89
[3]; [11]
  T/C × 100: 100
[2]; [6]
  IC50: 15 nM

## CCc1nc(N)nc(N)c1-c1ccc(NCc2ccc(Cl)c(Cl)c2)c([N+](=O)[O-])c1 [Compound 23, 2,4-Diamino-5-[4-(3,4-dichlorobenzylamino)-3-nitrophenyl]-6-ethylpyrimidine]
[3]; ip, 3.125 mg/kg, 576 h
  T/C × 100: 48
[3]; ip, 6.25 mg/kg, 576 h
  T/C × 100: 36
[3]; ip, 12.5 mg/kg, 576 h
  T/C × 100: 16
[3]; ip, 25 mg/kg, 576 h
  T/C × 100: < 8
[3]; ip, 50 mg/kg, 576 h
  T/C × 100: < 8

## CCc1nc(N)nc(N)c1-c1ccc(NCc2ccc(C)cc2)c([N+](=O)[O-])c1 [Compound 25, 2,4-Diamino-5-[4-(4-methylbenzylamino)-3-nitrophenyl]-6-ethylpyrimidine]
[3]; ip, 3.125 mg/kg, 576 h
  T/C × 100: 76
[3]; ip, 6.25 mg/kg, 576 h
  T/C × 100: 44
[3]; ip, 12.5 mg/kg, 576 h
  T/C × 100: 24
[3]; ip, 25 mg/kg, 576 h
  T/C × 100: 20
[3]
  Death: Dead

## CCc1nc(N)nc(N)c1-c1ccc(NCc2ccc(C(F)(F)F)cc2)c([N+](=O)[O-])c1 [Compound 28, 2,4-diamino-5-[3-nitro-4-(4-trifluoromethylbenzylamino)phenyl]-6-ethylpyrimidine]
[3]; ip, 3.125 mg/kg, 576 h
  T/C × 100: 40
[3]; ip, 6.25 mg/kg
  Tumor volume: 454 mm^3
[3]; ip, 6.25 mg/kg, 576 h
  T/C × 100: 20
[3]; ip, 12.5 mg/kg
  Tumor volume: 265 mm^3
[3]; ip, 12.5 mg/kg, 576 h
  T/C × 100: 12
[3]; ip, 25 mg/kg, 576 h
  T/C × 100: < 8
[3]
  Death: Dead

## CCCCOc1ccc(-c2c(N)nc(N)nc2CC)cc1[N+](=O)[O-] [OBu^n]
Rat liver DHFR; Table I, solvent A = water, tested as ethanesulphonate salt, read-out: I50, inhibition of rat liver DHFR
  IC50: 60 nM
Rat liver DHFR; [5]
  Ki: 0.08 ± 0.06 nM

## CCOc1ccc(-c2c(N)nc(N)nc2CC)cc1[N+](=O)[O-] [OEt]
Rat liver DHFR; [12]
  IC50: 140 nM

## CCc1nc(N)nc(N)c1-c1ccc(OC)c([N+](=O)[O-])c1 [OMe]
Rat liver DHFR; [12]
  IC50: 180 nM
[1]; optimum dose 120 mg/kg
  response vs control in vivo at 120 mg/kg: 189%

## Cc1nc(N)nc(N)c1-c1ccc(Cl)c(Cl)c1 [metoprine, reference compound]
[1]; optimum dose 50 mg/kg
  response vs control in vivo at 50 mg/kg: 140%
